Data as given in ChEMBL document CHEMBL5131391, “One-pot three-component synthesis of novel pyrazolo[3,4-b]pyridines as potent antileukemic agents” (Eur J Med Chem, 2022).
Calls of active or inactive are those of the source. No cut-off for these calls is given here.

How the values were obtained:
[1] = system: Hs-578T; assay: Cytostatic activity in human Hs-578T cells assessed as tumor growth inhibition measured after 48 hrs by NCI protocol based SRB assay; type: functional
[2] = system: SR; assay: Antiproliferative activity against human SR cells assessed as growth inhibition measured after 48 hrs by NCI protocol based SRB assay; type: functional
[3] = system: HCT-15; assay: Antiproliferative activity against human HCT-15 cells assessed as growth inhibition measured after 48 hrs by NCI protocol based SRB assay; type: functional
[4] = system: UACC-62; assay: Cytostatic activity in human UACC-62 cells assessed as tumor growth inhibition measured after 48 hrs by NCI protocol based SRB assay; type: functional
[5] = system: EKVX; assay: Cytostatic activity in human EKVX cells assessed as tumor growth inhibition measured after 48 hrs by NCI protocol based SRB assay; type: functional
[6] = system: SK-MEL-2; assay: Antiproliferative activity against human SK-MEL-2 cells assessed as growth inhibition measured after 48 hrs by NCI protocol based SRB assay; type: functional
[7] = system: U-251; assay: Cytostatic activity in human U-251 cells assessed as tumor growth inhibition measured after 48 hrs by NCI protocol based SRB assay; type: functional
[8] = system: SNB-75; assay: Cytostatic activity in human SNB-75 cells assessed as tumor growth inhibition measured after 48 hrs by NCI protocol based SRB assay; type: functional
[9] = system: HOP-92; assay: Antiproliferative activity against human HOP-92 cells assessed as growth inhibition measured after 48 hrs by NCI protocol based SRB assay; type: functional
[10] = system: SK-MEL-5; assay: Cytostatic activity in human SK-MEL-5 cells assessed as tumor growth inhibition measured after 48 hrs by NCI protocol based SRB assay; type: functional
[11] = system: HL-60(TB); assay: Cytostatic activity in human HL-60(TB) cells assessed as tumor growth inhibition measured after 48 hrs by NCI protocol based SRB assay; type: functional
[12] = system: SR; assay: Cytostatic activity in human SR cells assessed as tumor growth inhibition measured after 48 hrs by NCI protocol based SRB assay; type: functional
[13] = system: HT-29; assay: Cytostatic activity in human HT-29 cells assessed as tumor growth inhibition measured after 48 hrs by NCI protocol based SRB assay; type: functional
[14] = system: UO-31; assay: Cytostatic activity in human UO-31 cells assessed as tumor growth inhibition measured after 48 hrs by NCI protocol based SRB assay; type: functional
[15] = system: UACC-257; assay: Antiproliferative activity against human UACC-257 cells assessed as growth inhibition measured after 48 hrs by NCI protocol based SRB assay; type: functional
[16] = system: ACHN; assay: Cytostatic activity in human ACHN cells assessed as tumor growth inhibition measured after 48 hrs by NCI protocol based SRB assay; type: functional
[17] = system: M14; assay: Cytostatic activity in human M14 cells assessed as tumor growth inhibition measured after 48 hrs by NCI protocol based SRB assay; type: functional
[18] = system: RXF 393; assay: Cytostatic activity in human RXF 393 cells assessed as tumor growth inhibition measured after 48 hrs by NCI protocol based SRB assay; type: functional
[19] = system: ACHN; assay: Antiproliferative activity against human ACHN cells assessed as growth inhibition measured after 48 hrs by NCI protocol based SRB assay; type: functional
[20] = system: UO-31; assay: Antiproliferative activity against human UO-31 cells assessed as growth inhibition measured after 48 hrs by NCI protocol based SRB assay; type: functional
[21] = system: SF-268; assay: Cytostatic activity in human SF-268 cells assessed as tumor growth inhibition measured after 48 hrs by NCI protocol based SRB assay; type: functional
[22] = system: HL-60(TB); assay: Antiproliferative activity against human HL-60(TB) cells assessed as growth inhibition measured after 48 hrs by NCI protocol based SRB assay; type: functional
[23] = system: HOP-92; assay: Cytostatic activity in human HOP-92 cells assessed as tumor growth inhibition measured after 48 hrs by NCI protocol based SRB assay; type: functional
[24] = system: 786-0; assay: Antiproliferative activity against human 786-0 cells assessed as growth inhibition measured after 48 hrs by NCI protocol based SRB assay; type: functional
[25] = system: CCRF-CEM; assay: Antiproliferative activity against human CCRF-CEM cells assessed as growth inhibition measured after 48 hrs by NCI protocol based SRB assay; type: functional
[26] = system: MOLT-4; assay: Cytostatic activity in human MOLT-4 cells assessed as tumor growth inhibition measured after 48 hrs by NCI protocol based SRB assay; type: functional
[27] = system: BT-549; assay: Antiproliferative activity against human BT-549 cells assessed as growth inhibition measured after 48 hrs by NCI protocol based SRB assay; type: functional
[28] = system: SNB-19; assay: Cytostatic activity in human SNB-19 cells assessed as tumor growth inhibition measured after 48 hrs by NCI protocol based SRB assay; type: functional
[29] = system: CAKI-1; assay: Antiproliferative activity against human CAKI-1 cells assessed as growth inhibition measured after 48 hrs by NCI protocol based SRB assay; type: functional
[30] = system: A549; assay: Cytostatic activity in human A549 cells assessed as tumor growth inhibition measured after 48 hrs by NCI protocol based SRB assay; type: functional
[31] = system: IGROV-1; assay: Cytostatic activity in human IGROV-1 cells assessed as tumor growth inhibition measured after 48 hrs by NCI protocol based SRB assay; type: functional
[32] = system: NCI-H522; assay: Cytostatic activity in human NCI-H522 cells assessed as tumor growth inhibition measured after 48 hrs by NCI protocol based SRB assay; type: functional
[33] = system: OVCAR-4; assay: Antiproliferative activity against human OVCAR-4 cells assessed as growth inhibition measured after 48 hrs by NCI protocol based SRB assay; type: functional
[34] = system: A498; assay: Cytostatic activity in human A498 cells assessed as tumor growth inhibition measured after 48 hrs by NCI protocol based SRB assay; type: functional
[35] = system: MDA-MB-231; assay: Cytostatic activity in human MDA-MB-231 cells assessed as tumor growth inhibition measured after 48 hrs by NCI protocol based SRB assay; type: functional
[36] = system: COLO 205; assay: Antiproliferative activity against human COLO 205 cells assessed as growth inhibition measured after 48 hrs by NCI protocol based SRB assay; type: functional
[37] = system: RS4-11; assay: Downregulation of HOXA9 protein expression in human RS4-11 cells at 5 to 20 uM measured after 24 hrs by Western blot analysis; type: functional, cell-based; conditions: dose 5-20 µM
[38] = system: RS4-11; assay: Downregulation of MEIS1 protein expression in human RS4-11 cells at 5 to 20 uM measured after 24 hrs by Western blot analysis; type: functional, cell-based; conditions: dose 5-20 µM
[39] = system: RS4-11; assay: Induction of cell cycle arrest in human RS4-11 cells assessed as accumulation of cells in subG1 phase at 1.25 to 10 uM measured after 72 hrs by PI staining based flow cytometry analysis; type: functional; conditions: dose 1.25-10 µM
[40] = system: SR; assay: Antiproliferative activity against human SR cells assessed as growth inhibition at 10 uM measured after 48 hrs by NCI protocol based SRB assay relative to control; type: functional; conditions: read-out: GI
[41] = read-out: LC50 (the source's name)

## N#Cc1c(-c2ccccc2)nc2c(c(-c3ccccc3)nn2-c2ccccc2)c1-c1ccc(O)cc1
[1]
  TGI: 4.46 µM
[2]
  GI50: 2.95 µM
[2]; [41]
  CC50: > 100 µM
[3]
  GI50: 1.62 µM
[3]; [41]
  CC50: 8.9 µM
[4]
  TGI: 3.18 µM
[5]
  TGI: 5.1 µM
[6]
  GI50: 2.39 µM
[6]; [41]
  CC50: 41.7 µM
[7]
  TGI: 3.97 µM
[8]
  TGI: 7.28 µM
[9]
  GI50: 2.06 µM
[9]; [41]
  CC50: 8.6 µM
[10]
  TGI: 3.19 µM
[11]
  TGI: 23.7 µM
[12]
  TGI: > 100 µM
[13]
  TGI: 6.44 µM
[14]
  TGI: 4.17 µM
[15]
  GI50: 3.13 µM
[15]; [41]
  CC50: 6.55 µM
[16]
  TGI: 5.89 µM
[17]
  TGI: 5.48 µM
[18]
  TGI: 2.35 µM
[19]
  GI50: 2.24 µM
[19]; [41]
  CC50: 20.5 µM
[20]
  GI50: 2.02 µM
[20]; [41]
  CC50: 8.59 µM
[21]
  TGI: 9.14 µM
[22]
  GI50: 3.52 µM
[22]; [41]
  CC50: > 100 µM
[23]
  TGI: 4.2 µM
[24]
  GI50: 2.16 µM
[24]; [41]
  CC50: 31.8 µM
[25]
  GI50: 3.13 µM
[25]; [41]
  CC50: > 100 µM
[26]
  TGI: 7.86 µM
[27]
  GI50: 2 µM
[27]; [41]
  CC50: 9.92 µM
[28]
  TGI: 3.8 µM
[29]
  GI50: 2.48 µM
[29]; [41]
  CC50: 23.8 µM
[30]
  TGI: 6.87 µM
[31]
  TGI: 3.62 µM
[32]
  TGI: 6.03 µM
[33]
  GI50: 1.95 µM
[33]; [41]
  CC50: 12.8 µM
[34]
  TGI: 3.07 µM
[35]
  TGI: 3.31 µM
[36]
  GI50: 2.61 µM
[36]; [41]
  CC50: 58.2 µM

## Cc1ccc(-c2nc3c(c(-c4ccccc4)nn3-c3ccccc3)c(-c3ccc(O)cc3)c2C#N)cc1
[37]
  Activity: Active
[38]
  Activity: Active
[39]
  Activity: Active

## N#Cc1c(-c2ccco2)nc2c(c(-c3ccccc3)nn2-c2ccccc2)c1-c1ccc(O)cc1
[40]
  inhibition of growth at 10 µM: 81%
